Test results published in publication PMC11855827, “High-Throughput Screening of Five Compound Libraries for Anthelmintic Activity and Toxicity Leads to the Discovery of Two Flavonoid Compounds” (International Journal of Molecular Sciences, 2025).
Several values for one entry are separate records, joined by “and”; a condition that tells them apart may be missing. Equal values may be shown once. Read-outs that look alike come from different tables or passages of the source.

Experiments:
[1] = test system: C. elegans
[2] = test system: C. elegans; assay: microbe, parasite or virus in culture; conditions: Caenorhabditis elegans
[3] = Table S2, C. elegans SS assay, 110 μM, 24 h, averages of 4 data points
[4] = 24 h, read-out: Percentage of motility inhibition 24 h, Table S2, C. elegans SS assay, 110 μM, 24 h, averages of 4 data points
[5] = Table S2, C. elegans SS assay, 110 μM, averages of 4 data points
[6] = 0 h, read-out: Percentage of motility inhibition 0 h, Table S2, C. elegans SS assay, 110 μM, 0 h, averages of 4 data points
[7] = 0 h, read-out: Percentage of motility inhibition 0 h
[8] = 24 h, read-out: Percentage of motility inhibition 24 h

Row | SMILES | Percentage of motility inhibition 24 h [1, 3] | inhibition at 110 µM [2, 4] | inhibition at 110 µM [2, 6] | also measured
1 | CC1(C)[C@@H](O)CC[C@]2(C)[C@H]3C(=O)C=C4[C@H]5C[C@@](C)(C(=O)O)CC[C@]5(C)CC[C@@]4(C)[C@]3(C)CC[C@@H]12 [18α-Glycyrrhetinic acid] | 10% | 18% | – | –
2 | CC[C@H]1[C@@H]2C[C@H]3[C@@H]4N(C)c5ccccc5[C@]45C[C@@H]([C@H]2[C@H]5O)N3[C@@H]1O [Ajmaline] | – | – | 19% | Percentage of motility inhibition 0 h [1, 5]: 13%
3 | C=C1CC[C@@H]2[C@](C)(CO)[C@H](O)CC[C@@]2(C)[C@@H]1C/C=C1/C(=O)OC[C@H]1O [Andrographolide] | 19% | 17% | – | –
4 | C[C@H]1[C@H](OC(=O)CCC(=O)O)O[C@@H]2O[C@@]3(C)CC[C@H]4[C@H](C)CC[C@@H]1[C@@]24OO3 [Artesunate] | 15% | 30% | 12% | Percentage of motility inhibition 0 h [1, 5]: 21%
5 | O=c1cc(-c2ccccc2)oc2cc(O)c(O)c(O)c12 [Baicalein] | – | 12% | 10% | Percentage of motility inhibition 0 h ([1]; 110 μM): 14%; Percentage of motility inhibition 24 h ([1]; 24 h, 110 µM): 19%
6 | O=C(O)[C@H]1O[C@@H](Oc2cc3oc(-c4ccccc4)cc(=O)c3c(O)c2O)[C@H](O)[C@@H](O)[C@@H]1O [Baicalin] | – | 15% | – | Percentage of motility inhibition 24 h ([1]; 24 h, 110 µM): 24%
7 | C=C(C)[C@@H]1CC[C@]2(C(=O)O)CC[C@]3(C)[C@H](CC[C@@H]4[C@@]5(C)CC[C@H](O)C(C)(C)[C@@H]5CC[C@]43C)[C@@H]12 [Betulinic acid] | – | – | 27% | Percentage of motility inhibition 0 h [1, 5]: 22%
8 | CC12CCC(CC1=O)C2(C)C (stereo not drawn) [Camphor] | 10% | 5% | 0% | –
9 | CC[C@@]1(O)C(=O)OCc2c1cc1n(c2=O)Cc2cc3ccccc3nc2-1 [Camptothecin] | 3% | 6% | 25% | –
10 | O=c1c(-c2ccc(O)cc2)coc2cc(O)ccc12 [Daidzein] | 10% | 14% | – | –
11 | COC(=O)[C@H]1[C@H]2C[C@@H]3c4[nH]c5ccccc5c4CCN3C[C@H]2C[C@@H](OC(=O)c2cc(OC)c(OC)c(OC)c2)[C@@H]1OC [Deserpidine] | 23% | 21% | – | –
12 | CC[C@H]1OC(=O)[C@H](C)[C@@H](O[C@H]2C[C@@](C)(OC)[C@@H](O)[C@H](C)O2)[C@H](C)[C@@H](O[C@@H]2O[C@H](C)C[C@H](N(C)C)[C@H]2O)[C@](C)(O)C[C@@H](C)C(=O)[C@H](C)[C@@H](O)[C@]1(C)O [Erythromycin] | – | 5% | – | Percentage of motility inhibition 0 h [1, 5]: 10% and 0%
13 | Cc1ccc(C(C)C)cc2c(C)ccc1-2 [Guaiazulene] | – | 24% | – | Percentage of motility inhibition 24 h ([1]; 24 h, 110 µM): 12%
14 | COC(=O)C[C@](O)(CCCC(C)(C)O)C(=O)O[C@@H]1C(OC)=C[C@]23CCCN2CCc2cc4c(cc2[C@H]13)OCO4 [Homoharringtonine] | 2% and 0% | – | 20% | Percentage of motility inhibition 0 h [1, 5]: 12%
15 | CC1=C[C@]23C(=O)[C@@H](C=C(CO)[C@@H](O)[C@]2(O)[C@H]1O)[C@H]1[C@@H](C[C@H]3C)C1(C)C [Ingenol] | – | 19% | – | Percentage of motility inhibition 0 h [1, 5]: 0% and 1%
16 | COc1ccc2c(c1O)-c1c(OC)c(OC)cc3c1[C@H](C2)N(C)CC3 [Isocorydine] | 7% | – | 0% | –
17 | C[C@H]1C(=O)O[C@@H]2CCN3CC=C(COC(=O)[C@](C)(O)[C@]1(C)O)[C@H]23 [Monocrotaline] | 15% | 12% | – | Percentage of motility inhibition 0 h [1, 5]: 2%
18 | CCn1cc(C(=O)O)c(=O)c2ccc(C)nc21 [Nalidixic acid] | 26% | 18% | 27% | Percentage of motility inhibition 0 h [1, 5]: 22%
19 | CC1(C)CC[C@]2(C(=O)O)CC[C@]3(C)C(=CC[C@@H]4[C@@]5(C)CC[C@H](O)C(C)(C)[C@@H]5CC[C@]43C)[C@@H]2C1 [Oleanolic Acid] | – | – | – | Percentage of motility inhibition 24 h ([1]; 110 µM): 1% and 0%; inhibition at 110 µM [2, 7]: 4%
20 | O=C1CCC[C@@H]2[C@H]3CCC[N+]4([O-])CCC[C@@H](CN12)[C@@H]34 (stereo partly drawn) [Oxymatrine] | – | 11% | – | Percentage of motility inhibition 24 h ([1]; 24 h, 110 µM): 6%
21 | CC1(C)CCC[C@](C)([C@H]2CC[C@]3(C)[C@@H]2[C@H](O)C[C@@H]2[C@@]4(C)CC[C@H](O)C(C)(C)[C@@H]4[C@@H](O)C[C@]23C)O1 [Panaxatriol] | 11% | 15% | – | –
22 | CC(C)(O)[C@H]1O[C@H]2CC[C@@]3(C)[C@@](O)(CC[C@H]4Cc5c([nH]c6ccccc56)[C@@]43C)C2=CC1=O [Paxilline] | 0% and 8% | – | 12% | –
23 | COC(=O)[C@]1(C)CC[C@]2(C)CC[C@]3(C)C4=CC=C5C(=CC(=O)C(O)=C5C)[C@]4(C)CC[C@@]3(C)[C@@H]2C1 [Pristimerin] | 24% | 23% | 29% | Percentage of motility inhibition 0 h [1, 5]: 15%
24 | CC(C)=CCC/C(C)=C/CC/C(C)=C/CC/C=C(\C)CC/C=C(\C)CCC=C(C)C [Squalene] | – | 11% | 4% | Percentage of motility inhibition 24 h ([1]; 24 h, 110 µM): 19%
25 | CNCC(O)c1ccc(O)cc1 (stereo not drawn) [Synephrine] | 24% | – | 16% | –

Row | SMILES | Percentage of motility inhibition 24 h [1, 3] | inhibition at 110 µM [2, 4] | inhibition at 110 µM [2, 6] | also measured
26 | CC(=O)OC[C@]12[C@H](OC(C)=O)[C@H](OC(C)=O)[C@@H]3[C@@H](OC(C)=O)[C@@]14O[C@@]3(C)COC(=O)c1cccnc1CCC(C)C(=O)O[C@@H]([C@H](OC(=O)c1ccccc1)[C@@H]2OC(C)=O)[C@]4(C)O (stereo partly drawn) [Wilforine] | – | 9% | 23% | –
27 | COc1c(O)cc(O)c2c(=O)cc(-c3ccccc3)oc12 [Wogonin] | – | – | – | inhibition at 110 µM [2, 7]: 23%; inhibition at 110 µM [2, 8]: 5%
28 | COc1cc(O)c(CC=C(C)C)c(O)c1C(=O)/C=C/c1ccc(O)cc1 [Xanthohumol] | – | 13% | 23% | –
29 | OC[C@@H](O)[C@H](O)[C@@H](O)CO [Xylitol] | – | 13% | 22% | –
30 | O=C[C@H](O)[C@@H](O)[C@H](O)CO [Xylose] | – | 11% | 17% | –
31 | CC1=CC(=O)[C@@H](O)[C@]2(C)[C@H]3[C@@H](O)[C@H](O)[C@]4(CO)OC[C@@]35[C@@H](C[C@@H]12)OC(=O)[C@H](O)[C@]54O [Yadanziolide A] | – | 36% | 0% | –
32 | O=C(O)[C@@H]1[C@H]2C[C@H]3c4[nH]c5ccccc5c4CCN3C[C@@H]2CC[C@@H]1O [Yohimbic acid] | – | 51% | 4% | –
33 | CCN1C[C@]2(COC)[C@H](O)C[C@H](OC)[C@]34C1[C@H]([C@H](OC)[C@H]23)[C@@]1(OC(C)=O)C[C@H](OC)[C@@]2(O)C[C@@H]4[C@@H]1[C@H]2OC(=O)c1ccc(OC)cc1 [Yunaconitine] | – | 5% | 24% | –
34 | Nc1ccn([C@H]2CC[C@@H](CO)O2)c(=O)n1 [Zalcitabine] | – | 20% | 19% | –
35 | CC(=O)N[C@H]1[C@H]([C@H](O)[C@H](O)CO)OC(C(=O)O)=C[C@@H]1N=C(N)N [Zanamivir] | – | 6% | 22% | –
36 | Cc1cn([C@H]2C[C@H](N=[N+]=[N-])[C@@H](CO)O2)c(=O)[nH]c1=O [Zidovudine] | – | 4% | 7% | –
37 | CCCCC[C@H](O)CC(=O)CCc1ccc(O)c(OC)c1 [[6]‐Gingerol] | – | 10% | 1% | –
38 | C[C@@H]1O[C@@H](O[C@H]2[C@H](O[C@H]3CC[C@@]4(C)[C@@H](CC[C@]5(C)[C@@H]4CC=C4[C@@H]6CC(C)(C)CC[C@]6(C(=O)O)CC[C@]45C)[C@]3(C)CO)OC[C@H](O)[C@@H]2O)[C@H](O)[C@H](O)[C@H]1O [alpha-Hederin] | – | – | – | inhibition at 110 µM [2, 7]: 6%; inhibition at 110 µM [2, 8]: 0%
39 | O[C@H]1[C@H](O)[C@@H](O)[C@H](O)[C@@H](O)[C@H]1O [i-Inositol] | – | 0% | 0% | –
40 | O=C(O)CCCCC1CCSS1 (stereo not drawn) [α-Lipoic Acid] | – | 3% | 9% | –
41 | CC1=CC[C@@H](C(C)(C)O)CC1 [α-Terpineol] | – | 17% | 22% | –
42 | CC(=O)OC(C)(C)C1CC=C(C)CC1 (stereo not drawn) [α-Terpinyl acetate] | – | 28% | 18% | –
43 | CC(C)[C@]12CC(=O)[C@H](C)[C@H]1C2 [α-Thujone] | – | 20% | 9% | –
44 | C[C@H]1[C@H](C)CC[C@]2(C)CC[C@]3(C)C(=CC[C@@H]4[C@@]5(C)CC[C@@H](O)[C@](C)(C(=O)O)[C@@H]5CC[C@]43C)[C@H]12 [β-Boswellic acid] | – | – | – | inhibition at 110 µM [2, 7]: 32%; inhibition at 110 µM [2, 8]: 22%
45 | C=C1CC/C=C(\C)CC[C@@H]2[C@@H]1CC2(C)C [β-Caryophyllene] | – | 27% | 28% | –
46 | CC(C)=CCC[C@H](C(=O)O)[C@H]1CC[C@]2(C)C3=C(CC[C@@]12C)[C@@]1(C)CCC(=O)C(C)(C)[C@H]1CC3 [β-Elemonic acid] | – | 28% | 23% | –
47 | C=C1C=CC(C(C)C)CC1 (stereo not drawn) [β-Phellandrene] | – | 20% | 17% | –
48 | C=C1CCC2CC1C2(C)C (stereo not drawn) [β-Pinene] | – | 12% | 2% | –
49 | CC1=CCC(C(C)C)=CC1 [γ-Terpinene] | – | 31% | 6% | –
